From US20030125322A1, “Crystalline form I of 2-methyl-4-(4-methyl-1-piperazinyl) 10H thieno [2,3-b][1,5]benzodiazepine” (SUN PARMACEUTICAL INDUSTRIES LIMITED, priority 2001, published 2003)
Entries after “also recorded” stand apart in the source; their conditions may differ.

Legend:
[1] = cited from earlier work; for colour stability on standing / storage: prior-art material as reported ('382 process Form I; '541 Form II)
[2] = Storage stability of the crystalline form (colour, infrared spectrum, x-ray diffractogram); format: physicochemical; details: for change in colour, Infrared spectrum and X-ray diffractogram on storage: accelerated conditions
From the text: The crystalline Form I of 2-methyl-4-(4-methyl-1-piperazinyl)-10H-thieno[2,3-b][1,5]benzodiazepine of the present invention has a typical x-ray powder diffraction pattern as represented by d (interplanar spacing) values 9.9446, 8.5272, 8.1949, 6.8637, 6.3510, 5.4653, 4.8278, 4.7121, 4.5295, 4.2239, 4.0788, 3.8230, 3.7525, 3.6909, 3.4995, 3.3393, 3.1051, 2.9451, 2.8182, 2.7589, 2.5925, 2.3369, 2.0251, 1.9183; infrared absorbance bands at approximately 1456, 1365, 905, 757, 662 & 604 cm^−1 and a stable colour.

Compound | stability of crystal form ([1]; Form I obtained by the '382 process, as reported) | colour stability on standing / storage [1] | change in colour, Infrared spectrum and X-ray diffractogram on storage ([2]; 40° C. and 75% relative humidity for one month) | change in colour, Infrared spectrum and X-ray diffractogram on storage ([2]; 40° C. and 75% relative humidity for one month, listed as Example 2) | change in colour, Infrared spectrum and X-ray diffractogram on storage ([2]; 75-80° C. for 25 days) | change in colour, Infrared spectrum and X-ray diffractogram on storage ([2]; 75-80° C. for 25 days, listed as Example 2) | change in colour, infrared spectrum and x-ray diffractogram on storage ([2]; ambient conditions of storage, about 15° C. to 35° C. and about 40% to 90% RH) | change in colour, Infrared spectrum (KBr) and X-ray diffractogram on storage ([2]; ambient conditions of storage, room temperature for one month)
Cc1cc2c(s1)Nc1ccccc1N=C2N1CCN(C)CC1 [Form I, 2-methyl-4-(4-methyl-1-piperazinyl)-10H-thieno[2,3-b][1,5]benzodiazepine] | metastable | colour changes upon storage and exposure to air; also recorded: change its colour on standing | no changes in colour, infra-red spectrum and x-ray diffractogram | No change in colour, Infrared spectrum (KBr) and X-ray diffractogram | no changes in colour, infra-red spectrum and x-ray diffractogram | No change in colour, Infrared spectrum (KBr) and X-ray diffractogram | no change in colour, infrared spectrum and x-ray diffractogram | No change in colour, Infrared spectrum (KBr) and X-ray diffractogram
Cc1cc2c(s1)Nc1ccccc1N=C2N1CCN(C)CC1 [Form II, olanzapine, reference compound] | – | satisfactory colour stability | – | – | – | – | – | –
